Activity calls are given as the source filed them. The rule behind the calls is not given here.
What was measured:
[1] = Growth inhibition of mouse BAF3 cells measured after 72 hrs by CCK8 assay; format: cell-based
[2] = target: Mast/stem cell growth factor receptor Kit (Mus musculus) (UniProt P05532); assay: Inhibition of c-KIT in mouse BAF3(transformed) cells assessed as growth inhibition after 72 hrs by CCK8 assay
[3] = test system: Mast/stem cell growth factor receptor Kit (Homo sapiens), P10721 [T670I]; conditions: Mus musculus
Mast/stem cell growth factor receptor Kit (Homo sapiens), P10721 [T670I], sequence (P10721 whole entry T670I): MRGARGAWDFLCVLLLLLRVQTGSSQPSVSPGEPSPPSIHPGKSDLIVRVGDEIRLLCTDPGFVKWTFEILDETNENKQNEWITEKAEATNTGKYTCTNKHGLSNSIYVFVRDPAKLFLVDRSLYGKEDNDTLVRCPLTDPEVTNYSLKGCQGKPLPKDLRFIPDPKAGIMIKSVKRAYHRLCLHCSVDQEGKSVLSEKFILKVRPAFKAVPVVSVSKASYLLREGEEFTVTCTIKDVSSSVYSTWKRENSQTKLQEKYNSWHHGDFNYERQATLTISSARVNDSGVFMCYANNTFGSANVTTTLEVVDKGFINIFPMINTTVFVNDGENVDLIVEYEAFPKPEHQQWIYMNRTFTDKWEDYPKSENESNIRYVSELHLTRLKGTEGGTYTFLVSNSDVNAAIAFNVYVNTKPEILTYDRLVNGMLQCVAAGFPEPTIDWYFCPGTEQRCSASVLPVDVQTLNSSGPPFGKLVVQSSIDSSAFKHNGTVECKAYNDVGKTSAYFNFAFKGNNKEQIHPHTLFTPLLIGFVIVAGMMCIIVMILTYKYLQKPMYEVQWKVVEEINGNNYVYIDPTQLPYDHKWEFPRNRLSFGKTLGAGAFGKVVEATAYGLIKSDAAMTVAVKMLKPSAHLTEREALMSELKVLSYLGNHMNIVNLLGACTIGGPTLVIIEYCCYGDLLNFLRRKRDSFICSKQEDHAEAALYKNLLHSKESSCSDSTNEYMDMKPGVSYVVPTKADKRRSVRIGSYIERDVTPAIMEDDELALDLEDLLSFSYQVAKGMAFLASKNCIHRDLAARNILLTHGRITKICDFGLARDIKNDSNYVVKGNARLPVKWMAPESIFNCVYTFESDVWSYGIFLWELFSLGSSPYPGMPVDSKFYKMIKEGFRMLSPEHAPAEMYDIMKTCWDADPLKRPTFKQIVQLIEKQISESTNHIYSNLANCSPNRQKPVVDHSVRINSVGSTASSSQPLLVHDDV
Description: Inhibition of c-KIT T670I mutant in mouse BAF3(transformed) cells assessed as growth inhibition after 72 hrs by CCK8 assay

[4] = target: T1, Platelet-derived growth factor receptor alpha (Homo sapiens, UniProt P16234); format: cell-based; conditions: GISTT1
T1 sequence (P16234 whole entry): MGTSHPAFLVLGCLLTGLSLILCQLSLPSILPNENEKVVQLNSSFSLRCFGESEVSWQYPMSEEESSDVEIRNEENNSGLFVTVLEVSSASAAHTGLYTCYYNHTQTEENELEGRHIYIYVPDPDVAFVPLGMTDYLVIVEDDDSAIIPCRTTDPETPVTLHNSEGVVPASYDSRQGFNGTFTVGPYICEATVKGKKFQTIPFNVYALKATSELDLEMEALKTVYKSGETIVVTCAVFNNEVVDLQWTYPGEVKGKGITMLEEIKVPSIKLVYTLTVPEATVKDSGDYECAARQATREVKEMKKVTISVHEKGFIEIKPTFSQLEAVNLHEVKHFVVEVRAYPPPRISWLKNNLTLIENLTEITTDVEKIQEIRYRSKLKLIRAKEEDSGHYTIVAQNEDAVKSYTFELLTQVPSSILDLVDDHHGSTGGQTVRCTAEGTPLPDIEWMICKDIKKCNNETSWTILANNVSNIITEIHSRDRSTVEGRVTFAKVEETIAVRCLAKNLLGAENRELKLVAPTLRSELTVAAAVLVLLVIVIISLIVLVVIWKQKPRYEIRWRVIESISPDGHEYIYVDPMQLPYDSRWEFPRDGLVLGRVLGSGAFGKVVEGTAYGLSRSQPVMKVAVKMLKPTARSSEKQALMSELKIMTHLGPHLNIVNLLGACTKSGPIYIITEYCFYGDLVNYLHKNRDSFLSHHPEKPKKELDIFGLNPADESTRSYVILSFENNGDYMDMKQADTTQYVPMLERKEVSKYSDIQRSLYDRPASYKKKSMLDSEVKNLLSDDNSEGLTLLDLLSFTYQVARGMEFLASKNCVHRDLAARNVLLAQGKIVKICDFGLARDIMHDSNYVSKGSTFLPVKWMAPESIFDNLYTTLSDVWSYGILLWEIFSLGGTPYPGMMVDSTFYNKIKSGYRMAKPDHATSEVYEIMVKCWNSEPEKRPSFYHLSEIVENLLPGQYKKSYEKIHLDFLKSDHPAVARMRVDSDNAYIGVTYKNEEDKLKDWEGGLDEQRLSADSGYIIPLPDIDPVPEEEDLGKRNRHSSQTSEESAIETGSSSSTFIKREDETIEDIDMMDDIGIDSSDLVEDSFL

[5] = target: T1, Platelet-derived growth factor receptor alpha; format: cell-based; conditions: GISTT1; remark: listed apart in the source
[6] = target: T1, Platelet-derived growth factor receptor alpha; format: cell-based; conditions: GISTT1; remark: listed apart in the source
GISTT1 [7] = format: functional, cell-based; conditions: Homo sapiens
[8] = target: T1, Platelet-derived growth factor receptor alpha; format: cell-based; conditions: GISTT1; remark: listed apart in the source
[9] = target: T1, Platelet-derived growth factor receptor alpha; format: cell-based; conditions: GISTT1; remark: listed apart in the source
[10] = target: T1, Platelet-derived growth factor receptor alpha; format: cell-based; conditions: GISTT1; remark: listed apart in the source
[11] = target: T1, Platelet-derived growth factor receptor alpha; format: cell-based; conditions: GISTT1; remark: listed apart in the source
[12] = test system: Mast/stem cell growth factor receptor Kit (Homo sapiens), P10721 [V559A]; conditions: Mus musculus
Mast/stem cell growth factor receptor Kit (Homo sapiens), P10721 [V559A], sequence (P10721 whole entry V559A): as the sequence (P10721 whole entry T670I) above, with V559A, I670T counted along it
Description: Inhibition of c-KIT V559A mutant in mouse BAF3(transformed) cells assessed as growth inhibition after 72 hrs by CCK8 assay

Mus musculus [13] = organism: Mus musculus; assay: Inhibition of c-KIT S709F mutant in mouse BAF3(transformed) cells assessed as growth inhibition after 72 hrs by CCK8 assay
Mus musculus [14] = organism: Mus musculus; assay: Inhibition of c-KIT T670E mutant in mouse BAF3(transformed) cells assessed as growth inhibition after 72 hrs by CCK8 assay
[15] = test system: Mast/stem cell growth factor receptor Kit (Homo sapiens), P10721 [Y823D]; conditions: Mus musculus
Mast/stem cell growth factor receptor Kit (Homo sapiens), P10721 [Y823D], sequence (P10721 whole entry Y823D): as the sequence (P10721 whole entry T670I) above, with I670T, Y823D counted along it
Description: Inhibition of c-KIT Y823D mutant in mouse BAF3(transformed) cells assessed as growth inhibition after 72 hrs by CCK8 assay

GISTT1 [16] = format: functional, Homo sapiens
GISTT1 [17] = format: functional, Homo sapiens; conditions: Mus musculus, GISTT1, po, 672 h; read-out: TGI
[18] = test system: Mast/stem cell growth factor receptor Kit (Homo sapiens), P10721 [V559G]; conditions: Mus musculus
Mast/stem cell growth factor receptor Kit (Homo sapiens), P10721 [V559G], sequence (P10721 whole entry V559G): as the sequence (P10721 whole entry T670I) above, with V559G, I670T counted along it
Description: Inhibition of c-KIT V559G mutant in mouse BAF3(transformed) cells assessed as growth inhibition after 72 hrs by CCK8 assay

Mus musculus [19] = organism: Mus musculus; assay: Inhibition of c-KIT D816E mutant in mouse BAF3(transformed) cells assessed as growth inhibition after 72 hrs by CCK8 assay
[20] = test system: Mast/stem cell growth factor receptor Kit (Homo sapiens), P10721 [K642E]
Mast/stem cell growth factor receptor Kit (Homo sapiens), P10721 [K642E], sequence (P10721 whole entry K642E): as the sequence (P10721 whole entry T670I) above, with K642E, I670T counted along it

Mus musculus [21] = organism: Mus musculus; assay: Inhibition of c-KIT T670I/V559D double mutant in mouse BAF3(transformed) cells assessed as growth inhibition after 72 hrs by CCK8 assay
[22] = Growth inhibition of human GIST48B cells after 72 hrs by CCK8 assay; format: functional
[23] = test system: Mast/stem cell growth factor receptor Kit (Homo sapiens), P10721 [D820Y]; conditions: Mus musculus
Mast/stem cell growth factor receptor Kit (Homo sapiens), P10721 [D820Y], sequence (P10721 whole entry D820Y): as the sequence (P10721 whole entry T670I) above, with I670T, D820Y counted along it
Description: Inhibition of c-KIT D820Y mutant in mouse BAF3(transformed) cells assessed as growth inhibition after 72 hrs by CCK8 assay

Mus musculus [24] = organism: Mus musculus; assay: Inhibition of c-KIT V654A/V559D double mutant in mouse BAF3(transformed) cells assessed as growth inhibition after 72 hrs by CCK8 assay
[25] = test system: Mast/stem cell growth factor receptor Kit (Homo sapiens), P10721 [UNDEFINED MUTATION]; conditions: GISTT1
Mast/stem cell growth factor receptor Kit (Homo sapiens), P10721 [UNDEFINED MUTATION], sequence (P10721 whole entry, looked up, stated change not applied): as the sequence (P10721 whole entry T670I) above, with I670T counted along it
Description: Inhibition of c-KIT 560 to 578 deletion mutant in human GISTT1 cells assessed as growth inhibition after 72 hrs by CCK8 assay

Mus musculus [26] = organism: Mus musculus; assay: Inhibition of c-KIT D820G mutant in mouse BAF3(transformed) cells assessed as growth inhibition after 72 hrs by CCK8 assay

Mast/stem cell growth factor receptor Kit (Mus musculus), sequence (P05532 whole entry): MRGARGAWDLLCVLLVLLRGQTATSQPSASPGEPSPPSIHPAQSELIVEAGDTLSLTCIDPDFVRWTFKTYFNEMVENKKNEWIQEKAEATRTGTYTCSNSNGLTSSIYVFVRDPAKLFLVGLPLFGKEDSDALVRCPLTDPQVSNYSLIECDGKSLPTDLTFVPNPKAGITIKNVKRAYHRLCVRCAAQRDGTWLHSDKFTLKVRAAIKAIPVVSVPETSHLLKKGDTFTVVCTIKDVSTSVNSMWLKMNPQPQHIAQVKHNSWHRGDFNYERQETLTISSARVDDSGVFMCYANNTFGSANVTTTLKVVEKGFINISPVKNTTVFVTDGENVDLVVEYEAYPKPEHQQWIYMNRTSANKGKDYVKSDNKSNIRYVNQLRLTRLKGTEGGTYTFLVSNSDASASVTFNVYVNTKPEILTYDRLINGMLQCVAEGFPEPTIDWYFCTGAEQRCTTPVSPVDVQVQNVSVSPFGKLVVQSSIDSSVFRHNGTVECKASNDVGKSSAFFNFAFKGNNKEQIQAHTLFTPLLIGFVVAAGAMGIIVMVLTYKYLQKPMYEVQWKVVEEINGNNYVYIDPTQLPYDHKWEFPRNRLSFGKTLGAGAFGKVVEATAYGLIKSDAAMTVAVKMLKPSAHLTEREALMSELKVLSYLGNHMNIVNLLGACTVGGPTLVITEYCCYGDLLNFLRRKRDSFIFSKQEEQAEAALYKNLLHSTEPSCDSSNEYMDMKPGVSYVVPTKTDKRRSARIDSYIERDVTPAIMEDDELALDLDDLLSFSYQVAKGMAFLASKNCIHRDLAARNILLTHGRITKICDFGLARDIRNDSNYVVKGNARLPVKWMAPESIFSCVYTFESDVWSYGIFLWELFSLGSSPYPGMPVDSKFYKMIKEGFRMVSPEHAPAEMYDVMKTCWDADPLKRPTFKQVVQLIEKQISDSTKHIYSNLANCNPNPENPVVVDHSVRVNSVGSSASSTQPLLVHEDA

| SMILES | GI50 [2] [µM] | GI50 [3] [µM] | GI50 at 72 h [1] [µM] | other results |
| --- | --- | --- | --- | --- |
| COc1cc2nccc(Oc3ccc(NC(=O)Cc4ccc(Cl)c(C(F)(F)F)c4)cc3OC)c2cc1OC | 0.034 | 1.56 | 8.48 | – |
| COc1cc2nccc(Oc3ccc(NC(=O)Cc4ccc(Cl)c(C(F)(F)F)c4)cc3F)c2cc1OC | 0.116 | 0.021 | 1.99 | – |
| COc1cc2nccc(Oc3ccc(NC(=O)CC4CCCCC4)cc3)c2cc1OC | 0.635 | 0.362 | 2.47 | – |
| Cc1ccc(NC(=O)c2ccc(CN(CCN(C)C)C(=O)c3ccccn3)cc2)cc1Nc1nccc(-c2cccnc2)n1 | – | – | – | inhibition [4]: Active; inhibition [5]: Active; inhibition [6]: Active; Activity (GISTT1 [7]): Active; inhibition [8]: Active; inhibition [9]: Active; inhibition [10]: Active; inhibition [11]: Active |
| COc1cc2nccc(Oc3ccc(NC(=O)Cc4ccc5c(c4)OCO5)cc3)c2cc1OC | 0.11 | 0.167 | 3.1 | – |
| COc1cc2nccc(Oc3ccc(NC(=O)CN4CCN(C)CC4)cc3)c2cc1OC | 7.33 | 8.52 | 8.7 | – |
| COc1ccc(CC(=O)Nc2ccc(Oc3ccnc4cc(OC)c(OC)cc34)cc2)cc1OC | 0.319 | 0.179 | 4.13 | – |
| COc1cc2nccc(Sc3ccc(NC(=O)Cc4ccc(Cl)c(C(F)(F)F)c4)cc3)c2cc1OC | 0.154 | 0.11 | 3.09 | – |
| COc1cc2nccc(Oc3ccc(NC(=O)C4(c5ccccc5)CC4)cc3)c2cc1OC | > 10 | > 10 | > 10 | – |
| Cc1ccc(NC(=O)c2ccc(CN3CCN(C)CC3)cc2)cc1Nc1nccc(-c2cccnc2)n1 [IMATINIB] | 0.35 | – | > 10 | GI50 [12]: 0.905 µM; GI50 (Mus musculus [13]): 0.115 µM; Activity (GISTT1 [7]): Active; GI50 (Mus musculus [14]): 4.08 µM; GI50 [15]: 5.87 µM; Activity (GISTT1 [16]): 1.54 g; inhibition in vivo at 100 mg/kg/day (GISTT1 [17]): 66.4%; GI50 [18]: 0.008 µM; GI50 (Mus musculus [19]): 0.174 µM; GI50 [20]: 0.048 µM; GI50 (Mus musculus [21]): > 10 µM; GI50 [22]: > 10 µM; GI50 [23]: 0.435 µM; GI50 (Mus musculus [24]): 0.608 µM; GI50 [25]: 0.015 µM; GI50 (Mus musculus [26]): 0.337 µM |
| COc1cc2nccc(Oc3ccc(NC(=O)Cc4ccc(Cl)c(C(F)(F)F)c4)cc3C(F)(F)F)c2cc1OC | 3 | 2.84 | 2.92 | – |
| COc1cc2nccc(Oc3ccc(NC(=O)Cc4ccc(Cl)c(C(F)(F)F)c4)cc3C)c2cc1OC | 0.105 | 0.009 | 7.05 | – |
| COc1cc2nccc(Oc3ccc(NC(=O)Cc4ccc(Cl)c(C(F)(F)F)c4)c(C)c3)c2cc1OC | 0.061 | 0.075 | 4.86 | – |
| COc1cc2nccc(Nc3ccc(NC(=O)Cc4ccc(Cl)c(C(F)(F)F)c4)cc3)c2cc1OC | 0.742 | 0.4 | 2.21 | – |
| COc1cc2nccc(Oc3ccc(NC(=O)Cc4ccc(Cl)c(C(F)(F)F)c4)c(Cl)c3)c2cc1OC | 0.081 | 0.07 | 8.22 | – |
| COc1cc2nccc(Oc3ccc(NC(=O)Cc4ccc(Cl)c(C(F)(F)F)c4)cc3C#N)c2cc1OC | 0.989 | 0.21 | 9.97 | – |
| COc1cc2nccc(Oc3ccc(NC(=O)Cc4ccc5ccccc5c4)cc3)c2cc1OC | 0.112 | 0.034 | 6.23 | – |
| COc1cc2nccc(N(C)c3ccc(NC(=O)Cc4ccc(Cl)c(C(F)(F)F)c4)cc3)c2cc1OC | 4.28 | 8.46 | 2.67 | – |
| CCC(=O)NCC1CCN(c2ccc(NC(=O)Nc3cccc(Oc4ccnc5cc(OC)c(OC)cc45)c3)cc2C(F)(F)F)CC1 | 0.057 | – | > 10 | – |
| COc1cc2nccc(Oc3ccc(NC(=O)Cc4ccc(Cl)c(C(F)(F)F)c4)cc3Cl)c2cc1OC | 0.078 | 0.056 | 9.45 | – |

Further lines, with some results ahead:

| GI50 [2] [µM] | GI50 [3] [µM] | SMILES | GI50 at 72 h [1] [µM] | other results |
| --- | --- | --- | --- | --- |
| 0.022 | 0.011 | COc1cc2nccc(Oc3ccc(NC(=O)Cc4ccc(C(F)(F)F)cc4)cc3)c2cc1OC | 2.16 | – |
| 0.02 | 0.001 | COc1cc2nccc(Oc3ccc(NC(=O)Cc4cccc(C(F)(F)F)c4)cc3)c2cc1OC | 1.89 | – |
| 0.424 | 0.309 | COc1cc2nccc(Oc3ccc(NC(=O)Cc4ccccc4C(F)(F)F)cc3)c2cc1OC | 6.7 | – |
| 2.78 | 1.7 | COc1cc2nccc(Oc3ccc(NC(=O)Cc4c(F)cccc4F)cc3)c2cc1OC | 1.93 | – |
| 0.04 | 0.285 | COc1cc2nccc(Oc3ccc(NC(=O)Cc4ccc(F)cc4F)cc3)c2cc1OC | 0.704 | – |
| 0.342 | 0.037 | COc1cc2nccc(Oc3ccc(NC(=O)Cc4ccc(Cl)c(Cl)c4)cc3)c2cc1OC | 2.03 | – |
| 0.923 | 0.342 | COc1cc2nccc(Oc3ccc(NC(=O)Cc4cccc(F)c4)cc3)c2cc1OC | 1 | – |
| 0.027 | 0.015 | COc1cc2nccc(Oc3ccc(NC(=O)Cc4ccc(C)c(C)c4)cc3)c2cc1OC | 6.42 | – |
| 2.35 | 4.61 | COc1cc2nccc(Oc3ccc(C(=O)NCc4cccc(C(F)(F)F)c4)cc3)c2cc1OC | 10 | – |
| 4.71 | 6.99 | COc1cc2nccc(Oc3ccc(NC(=O)Cc4ccncc4)cc3)c2cc1OC | 5.13 | – |
| > 10 | > 10 | COc1cc2nccc(Oc3ccc(NC(=O)Cc4ccccc4)cc3)c2cc1OC | > 10 | – |
| 0.312 | 0.309 | COc1cc2nccc(Oc3ccc(NC(=O)Cc4ccc(F)c(F)c4)cc3)c2cc1OC | 0.67 | – |
| 0.293 | 0.339 | COc1cccc(CC(=O)Nc2ccc(Oc3ccnc4cc(OC)c(OC)cc34)cc2)c1 | 2.78 | – |
| 0.024 | 0.013 | COc1cc2nccc(Oc3ccc(NC(=O)Cc4ccc(F)c(C(F)(F)F)c4)cc3)c2cc1OC | 1.03 | – |
| 2.9 | 0.668 | COc1cc2nccc(Oc3ccc(C(=O)NCc4ccc(C(F)(F)F)cc4)cc3)c2cc1OC | 6.18 | – |
| 0.017 | 0.014 | COc1cc2nccc(Oc3ccc(NC(=O)Cc4ccc(C)c(C(F)(F)F)c4)cc3)c2cc1OC | 7.26 | – |
| 0.049 | 0.018 | COc1cc2nccc(Oc3ccc(NC(=O)Cc4ccc(Cl)c(C(F)(F)F)c4)c(F)c3)c2cc1OC | 3.21 | – |

Source: ChEMBL document CHEMBL4359837, “Discovery of 2-(4-Chloro-3-(trifluoromethyl)phenyl)-N-(4-((6,7-dimethoxyquinolin-4-yl)oxy)phenyl)acetamide (CHMFL-KIT-64) as a Novel Orally Available Potent Inhibitor against Broad-Spectrum Mutants of c-KIT Kinase for Gastrointestinal Stromal Tumors” (J Med Chem, 2019)
